Measurements from patent US20080311657A1, “Killing Human Lymphoma and Leukemia Cancer Cells and Tcr-Activated Normal Human Cells By Dopamine D1r Agonists” (priority 2005, published 2008).
“And” between values parts separate entries of the source, which are not always exact repeats. Equal values may be shown once. “Also recorded” adds a separate entry of the source.

Tests used:
[1] = system: Human chronic myelogenous leukemia cells (CML) (K-562); test: Number of living cells counted by flow cytometry (FACSort) after D1R agonist; format: cell-based; conditions: added four times during 1 hour, counted 3 days later
Description: (§1) Human chronic myelogenous leukemia cells (CML) (K-562) were seeded in 96 well plates (0.5 ml per well of 0.5 million cells/ml) and A 77636 hydrochloride was added and diluted 1:00 into the wells at starting concentrations of 10^−1M-10^−4M, so that the final concentration range tested was 10^−3M-10^−6M. Afterwards, the microtiter plates were placed in an incubator (37° C., humidified incubator, 5% CO2) for 3 days. Then, the number of living cells was evaluated by flow cytometry (the cells were counted by FACsort for a fixed time length of 1 min, in which 100 microliter of each sample was tested).
as §1, with “68930” for “77636”
as §1, with “SKF 38393 hydrobromide” for “A 77636 hydrochloride”
(§2) Human chronic myelogenous leukemia cells (CML) (K-562) were seeded in 96 well plates (0.5 ml per well of 0.5 million cells/ml) and A 77636 hydrochloride was added and diluted 1:00 into the wells, at a fixed starting concentration of 10^−2M, so that the final concentration tested was 10^−4M. The experiment was designed to test the effect of exposing the cells to the D1R agonist for 1 min, 15 min, 1 hr or 72 hr. Thus, 1 min, or 15 min or 1 hr after the addition of the D1R agonist, the corresponding cells were transferred into tubes, centrifuged (1000 rpm for 10 min), and the supernatant was removed. […] Thus, its medium was not replaced, and these cells and remained as such in the incubator for 72 hr. At the end of the 72 hr incubation, the number of living cells was evaluated by flow cytometry (the cells were counted by FACsort for a fixed time length of 1 min, in which 100 microliter of each sample was tested).
(§3) Cell viability was tested afterwards.
(§4) For this purpose, the Jurkat T-cell leukemia line, the HuT-78 human T-lymphoma (cutaneous “Sezary” T-lymphoma) line, and the K-562 human Chronic-Myeloid Leukemia (CML) and Daudi Human B-lymphoma (Burkitt's lymphoma) lines were seeded in tissue culture wells (0.5 million cells/0.5 ml/well).
(§5) Cell survival/death was evaluated 3 days later by counting the number of living cells, using flow cytometry.
The effect of dopamine itself (that can of course activate all its D1R-5 receptors) was also tested. All of these molecules were tested at a similar concentration (10^−4 M). […] The specificity and restriction of the effect to the D1R is also seen in Tables 7 and 8.

[2] = system: Human cutaneous Sezary T-lymphoma cells (HuT-78); test: as above; format: cell-based; conditions: added four times during 1 hour, counted 3 days later
[3] = system: Human Chronic Myeloid Leukemia (CML, K-562); test: Cell death by LDH release (CytoTox 96); format: cell-based; conditions: FDM 10^−4M-10^−12M, added four times during 1 hour
[4] = system: Human T-cell leukemia (Jurkat); test: Cell death by LDH release (CytoTox 96); format: cell-based; conditions: FDM 10^−4M-10^−12M, added four times during 1 hour
Description: as §3

[5] = system: Human Burkitt's B-Cell Lymphoma (Daudi); test: Cell death by LDH release (CytoTox 96); format: cell-based; conditions: FDM 10^−4M-10^−12M, added four times during 1 hour
Description: as §3

[6] = system: Human T-Cell Lymphoma (HuT-78); test: Cell death by LDH release (CytoTox 96); format: cell-based; conditions: FDM 10^−4M-10^−12M, added four times during 1 hour
[7] = patients receiving the 48 hour FDA-approved infusion; cited from earlier work
[8] = system: Human T-cell leukemia (Jurkat) cells; test: Number of living cells counted by flow cytometry (FACSort) after D1R agonist; format: cell-based; conditions: added four times during 1 hour, counted 3 days later
Description: Afterwards, the microtiter plates were placed in an incubator (37° C., humidified incubator, 5% CO2) for 3 days. Then, the number of living cells was evaluated by flow cytometry (the cells were counted by FACsort for a fixed time length of 1 min, in which 100 microliter of each sample was tested). Of note, A 77636 hydrochloride is an orally-active D1R agonist, according to the manufacturer (Tocris).
Afterwards, the microtiter plates were placed in an incubator (37° C., humidified incubator, 5% CO2) for 3 days. Then, the number of living cells was evaluated by flow cytometry (the cells were counted by FACsort for a fixed time length of 1 min, in which 100 microliter of each sample was tested).
as §2, with “The” for “Human chronic myelogenous leukemia cells (CML) (K-562) were seeded in 96 well plates (0.5 ml per well of 0.5 million cells/ml) and A 77636 hydrochloride was added and diluted 1:00 into the wells, at a fixed starting concentration of 10^−2M, so that the final concentration tested was 10^−4M. The”, “min);” for “min),”
as §3, §4, §5

[9] = system: TCR-activated normal human T-cells; test: Cell death by LDH release (CytoTox 96); format: cell-based; conditions: FDM 10^−4M-10^−10M, added four times during 1 hour; methanesulfonate
Description: Non-tissue culture treated 24-well plates (Falcon, Franklin Lakes, N.J.) were coated overnight at 4° C. with anti-CD3 and anti-CD28 monoclonal antibodies (mabs) (BD Pharmingen, San Jose, Calif.); ([…] in PBS). The wells were then washed with PBS, blocked for 1 hour at 37° C. (PBS/1% BSA), and washed again. The freshly purified normal human T-cells were resuspended in their respective fresh media and seeded in the anti-CD3/CD28 coated wells (1×10^6 per well), and the plates were incubated for 72 hours (37° C., humidified incubator, 5% CO2). Then, the cells and their media were collected from each well, transferred into 50 ml tubes, centrifuged (1200 rpm, 10 minutes) and both the TCR-activated cells and their culture media were collected and transferred into clean separate tubes.
as §3

## CS(=O)(=O)O.Oc1ccc(C2CNCCc3c2cc(O)c(O)c3Cl)cc1 (stereo not drawn) [FDM, 6-chloro-2,3,4,5-tetrahydro-1-(4-hydroxyphenyl)-[1H]-3-benzazepine-7,8-diol methanesulfonate]
[1]; FDM 10^−4M
  % Dead Cells: 100%
  No. of Living Cells: 21
[1]; FDM 10^−6M
  % Dead Cells: 34%
  No. of Living Cells: 18680
[1]; FDM 10^−8M
  No. of Living Cells: 21137
[1]; FDM 10^−8M, methanesulfonate
  % Dead Cells: 25% and 26%
[1]; FDM 10^−10M
  % Dead Cells: 25%
  No. of Living Cells: 21476
[1]; FDM 10^−12M
  % Dead Cells: 33%
  No. of Living Cells: 19250
[2]; FDM 10^−4M
  % Dead Cells: 99%
  No. of Living Cells: 213
[2]; FDM 10^−6M
  % Dead Cells: 28%
  No. of Living Cells: 17023
[2]; FDM 10^−8M
  No. of Living Cells: 16080
[2]; FDM 10^−8M, methanesulfonate
  % Dead Cells: 32%
[2]; FDM 10^−10M
  % Dead Cells: 38%
  No. of Living Cells: 14728
[2]; FDM 10^−12M
  % Dead Cells: 46%
  No. of Living Cells: 12662
[3]
  Killing evident by LDH release (FIG. 4), in words: kills human chronic myelogenous leukemia (CML) in a dose dependent manner
[4]
  Killing evident by LDH release (FIG. 2), in words: kills human T-cell leukemia in a dose dependent manner
[5]
  Killing evident by LDH release (FIG. 5), in words: kills human Burkitt's B-lymphoma in a dose dependent manner
[6]
  Killing evident by LDH release (FIG. 3), in words: kills human cutaneous Sezary T-cell lymphoma in a dose dependent manner
[7]
  Approximate steady state concentration in the circulation: ~10^−8 M
[8]; FDM 10^−4M
  % Dead Cells: ~100%
  No. of Living Cells: 4
[8]; FDM 10^−6M
  % Dead Cells: 18%
  No. of Living Cells: 15938
[8]; FDM 10^−8M
  No. of Living Cells: 7451
[8]; FDM 10^−8M, methanesulfonate
  % Dead Cells: 62%
[8]; FDM 10^−10M
  % Dead Cells: 52%
  No. of Living Cells: 9472
[8]; FDM 10^−12M
  % Dead Cells: 46%
  No. of Living Cells: 10568
[9]
  Killing evident by LDH release (FIG. 8), in words: marked death; also recorded: kills human TCR-activated T-cells, in a dose dependent manner
